Assay results taken from patent US9682977B2, “Bicyclic heteroaryl indole analogues useful as ROR gamma modulators” (Glenmark Pharmaceuticals S.A., priority 2013, dated 2017).
Like-named read-outs stand apart in the source and are kept apart here.

Target: T1, GST-tagged ROR gamma ligand binding domain (LBD) (Homo sapiens, UniProt P51449)
T1 construct: purchased Invitrogen
T1 sequence (P51449 269-508 limits assumed): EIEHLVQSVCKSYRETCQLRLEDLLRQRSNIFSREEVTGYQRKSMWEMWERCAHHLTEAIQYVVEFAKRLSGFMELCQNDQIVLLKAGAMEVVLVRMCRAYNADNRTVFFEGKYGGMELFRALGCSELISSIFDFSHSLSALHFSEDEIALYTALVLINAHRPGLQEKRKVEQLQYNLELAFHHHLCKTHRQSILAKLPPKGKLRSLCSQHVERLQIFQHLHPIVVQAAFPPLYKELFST
Experiment: TR-FRET assay for ROR gamma (Lantha Screen, co-activator peptide recruitment)
Assay type: biochemical
Details: for inhibition at 1 µM: read-out: % inhibition at 1 μM; for inhibition at 10 µM: read-out: % inhibition at 10 μM

[1] = class symbols, from dose response curve, read-out: IC50 value
[2] = compound concentration 1 μM, TR-FRET ratio 520/495, percent of control
[3] = compound concentration 10 μM, TR-FRET ratio 520/495, percent of control

Structure (SMILES): Cc1ccccc1Oc1nn(-c2ccc(C(=O)O)cc2)c2ccccc12 [Example 1, 4-[3-(2-Methylphenoxy)-1H-indazol-1-yl]benzoic acid]
- IC50 [1]: < 50 nM
- inhibition at 1 µM [2]: 90%
- inhibition at 10 µM [3]: 96.3%

Structure (SMILES): O=C(O)c1ccc(-n2nc(Oc3ccccc3C(F)(F)F)c3ccccc32)cc1 [Example 2, 4-{3-[2-(Trifluoromethyl)phenoxy]-1H-indazol-1-yl}benzoic acid]
- IC50 [1]: < 50 nM
- inhibition at 1 µM [2]: 96.9%
- inhibition at 10 µM [3]: 98.4%

Structure (SMILES): Cc1cccc(Oc2nn(-c3ccc(C(=O)O)cc3)c3ccccc23)c1 [Example 3, 4-[3-(3-Methylphenoxy)-1H-indazol-1-yl]benzoic acid]
- inhibition at 1 µM [2]: 23.4%
- inhibition at 10 µM [3]: 34.6%

Structure (SMILES): O=C(O)c1ccc(-n2nc(Oc3ccccc3)c3ccccc32)cc1 [Example 4, 4-(3-Phenoxy-1H-indazol-1-yl)benzoic acid]
- inhibition at 1 µM [2]: 31.2%
- inhibition at 10 µM [3]: 37%

Structure (SMILES): O=C(O)c1ccc(-n2nc(Oc3c(Cl)cccc3Cl)c3ccccc32)cc1 [Example 5, 4-[3-(2,6-Dichlorophenoxy)-1H-indazol-1-yl]benzoic acid]
- IC50 [1]: < 50 nM
- inhibition at 1 µM [2]: 98.4%
- inhibition at 10 µM [3]: 99%

Structure (SMILES): O=C(O)c1ccc(-n2nc(Oc3c(Cl)cccc3Cl)c3ccccc32)c(F)c1 [Example 6, 4-[3-(2,6-Dichlorophenoxy)-1H-indazol-1-yl]-3-fluorobenzoic acid]
- IC50 [1]: < 50 nM
- inhibition at 1 µM [2]: 99.2%
- inhibition at 10 µM [3]: 99.6%

Structure (SMILES): O=C(O)c1ccc(-n2nc(Oc3c(Cl)cccc3C(F)(F)F)c3ccccc32)c(F)c1 [Example 7, 4-{3-[2-Chloro-6-(trifluoromethyl)phenoxy]-1H-indazol-1-yl}-3-fluorobenzoic acid]
- IC50 [1]: < 50 nM
- inhibition at 1 µM [2]: 95.3%
- inhibition at 10 µM [3]: 94.8%

Structure (SMILES): O=C(O)c1ccc(-n2nc(Oc3ccccc3C(F)(F)F)c3ccccc32)c(F)c1 [Example 8, 3-Fluoro-4-{3-[2-(trifluoromethyl)phenoxy]-1H-indazol-1-yl}benzoic acid]
- IC50 [1]: < 50 nM
- inhibition at 1 µM [2]: 96.4%
- inhibition at 10 µM [3]: 98.2%

Structure (SMILES): O=C(O)c1ccc(-n2nc(Oc3ccc(Cl)cc3C(F)(F)F)c3ccccc32)c(F)c1 [Example 9, 4-{3-[4-Chloro-2-(trifluoromethyl)phenoxy]-1H-indazol-1-yl}-3-fluorobenzoic acid]
- IC50 [1]: > 100 nM
- inhibition at 1 µM [2]: 86.5%
- inhibition at 10 µM [3]: 96.9%

Structure (SMILES): O=C(O)c1ccc(-n2nc(Oc3c(Cl)cccc3C(F)F)c3ccccc32)c(F)c1 [Example 10, 4-{3-[2-Chloro-6-(difluoromethyl)phenoxy]-1H-indazol-1-yl}-3-fluorobenzoic acid]
- IC50 [1]: < 50 nM
- inhibition at 1 µM [2]: 100%
- inhibition at 10 µM [3]: 100%

Structure (SMILES): O=C(O)c1ccc(-n2nc(Oc3c(Cl)cccc3Cl)c3cccc(F)c32)c(F)c1 [Example 11, 4-[3-(2,6-Dichlorophenoxy)-7-fluoro-1H-indazol-1-yl]-3-fluorobenzoic acid]
- IC50 [1]: < 50 nM
- inhibition at 1 µM [2]: 98.1%
- inhibition at 10 µM [3]: 97.8%

Structure (SMILES): O=C(O)c1ccc(-n2nc(Oc3c(Cl)cccc3C(F)F)c3cccc(F)c32)c(F)c1 [Example 12, 4-{3-[2-Chloro-6-(difluoromethyl)phenoxy]-7-fluoro-1H-indazol-1-yl}-3-fluorobenzoic acid]
- IC50 [1]: < 50 nM
- inhibition at 1 µM [2]: 94.4%
- inhibition at 10 µM [3]: 95.1%

Structure (SMILES): O=C(O)c1ccc(-n2nc(Oc3c(Cl)cccc3C3CC3)c3ccccc32)c(F)c1 [Example 13, 4-[3-(2-Chloro-6-cyclopropylphenoxy)-1H-indazol-1-yl]-3-fluorobenzoic acid]
- IC50 [1]: < 50 nM
- inhibition at 1 µM [2]: 91.7%
- inhibition at 10 µM [3]: 91.7%

Structure (SMILES): O=C(O)c1ccc(-n2nc(Oc3c(Cl)cccc3C3CC3)c3cccc(F)c32)c(F)c1 [Example 14, 4-[3-(2-Chloro-6-cyclopropylphenoxy)-7-fluoro-1H-indazol-1-yl]-3-fluorobenzoic acid]
- IC50 [1]: < 50 nM
- inhibition at 1 µM [2]: 91.4%
- inhibition at 10 µM [3]: 91.2%

Structure (SMILES): O=C(O)c1ccc(-n2cc(C(=O)c3ccccc3F)c3ccccc32)cc1 [Example 15, 4-{3-[(2-Fluorophenyl)carbonyl]-1H-indol-1-yl}benzoic acid]
- IC50 [1]: > 100 nM
- inhibition at 1 µM [2]: 76.4%
- inhibition at 10 µM [3]: 95.8%

Structure (SMILES): O=C(O)c1ccc(-n2cc(C(=O)c3c(Cl)cccc3Cl)c3ccccc32)cc1 [Example 16, 4-{3-[(2,6-Dichlorophenyl)carbonyl]-1H-indol-1-yl}benzoic acid]
- IC50: < 50 nM
- inhibition at 1 µM: 96%
- inhibition at 10 µM: 97.2%

Structure (SMILES): O=C(O)c1ccc(-n2cc(C(=O)c3ccccc3Cl)c3ccccc32)cc1 [Example 17, 4-{3-[(2-Chlorophenyl)carbonyl]-1H-indol-1-yl}benzoic acid]
- IC50: 50 to 100 nM
- inhibition at 1 µM: 84.9%
- inhibition at 10 µM: 96%

Structure (SMILES): O=C(O)c1ccc(-n2cc(C(=O)c3c(F)cccc3F)c3ccccc32)cc1 [Example 18, 4-{3-[(2,6-Difluorophenyl)carbonyl]-1H-indol-1-yl}benzoic acid]
- IC50: 50 to 100 nM
- inhibition at 1 µM: 81%
- inhibition at 10 µM: 94.5%

Structure (SMILES): O=C(O)c1ccc(-n2cc(C(=O)c3ccccc3Cl)c3ccccc32)c(F)c1 [Example 20, 4-{3-[(2-Chlorophenyl)carbonyl]-1H-indol-1-yl}-3-fluorobenzoic acid]
- IC50 [1]: < 50 nM
- inhibition at 1 µM [2]: 95.7%
- inhibition at 10 µM [3]: 100%

Structure (SMILES): O=C(O)c1ccc(-n2cc(C(=O)c3c(Cl)cccc3C(F)(F)F)c3ccccc32)c(F)c1 [Example 21, 4-{3-[2-Chloro-6-(trifluoromethyl)benzoyl]-1H-indol-1-yl}-3-fluorobenzoic acid]
- IC50: < 50 nM
- inhibition at 1 µM: 92.2%
- inhibition at 10 µM: 92.4%

Structure (SMILES): O=C(O)c1ccc(-n2cc(C(=O)c3c(Cl)cccc3Cl)c3c(F)cccc32)c(F)c1 [Example 22, 4-[3-(2,6-Dichlorobenzoyl)-4-fluoro-1H-indol-1-yl]-3-fluorobenzoic acid]
- IC50: < 50 nM
- inhibition at 1 µM: 96.8%
- inhibition at 10 µM: 99.3%

Structure (SMILES): O=C(O)c1ccc(-n2cc(C(=O)c3c(Cl)cccc3Cl)c3cc(F)ccc32)c(F)c1 [Example 23, 4-[3-(2,6-Dichlorobenzoyl)-5-fluoro-1H-indol-1-yl]-3-fluorobenzoic acid]
- IC50 [1]: < 50 nM
- inhibition at 1 µM [2]: 98.2%
- inhibition at 10 µM [3]: 96.7%

Structure (SMILES): O=C(O)c1ccc(-n2cc(C(=O)c3c(Cl)cccc3Cl)c3ccc(F)cc32)c(F)c1 [Example 24, 4-[3-(2,6-Dichlorobenzoyl)-6-fluoro-1H-indol-1-yl]-3-fluorobenzoic acid]
- IC50 [1]: < 50 nM
- inhibition at 1 µM [2]: 95.8%
- inhibition at 10 µM [3]: 97.8%

Structure (SMILES): CN(C)C(=O)c1ccc2c(C(=O)c3c(Cl)cccc3Cl)cn(-c3ccc(C(=O)O)cc3F)c2c1 [Example 26, 4-[3-(2,6-Dichloro-benzoyl)-6-dimethylcarbamoyl-indol-1-yl]-3-fluoro-benzoic acid]
- inhibition at 1 µM: 31.3%
- inhibition at 10 µM: 33.7%

Structure (SMILES): O=C(O)c1ccc(-n2cc(C(=O)c3c(Cl)cccc3Cl)c3cccnc32)c(F)c1 [Example 27, 4-[3-(2,6-Dichlorobenzoyl)-1H-pyrrolo[2,3-b]pyridin-1-yl]-3-fluorobenzoic acid]
- IC50 [1]: < 50 nM
- inhibition at 1 µM [2]: 95.6%
- inhibition at 10 µM [3]: 97.9%

Structure (SMILES): O=C(O)c1ccc(-n2nc(C(=O)c3ccccc3)c3ccccc32)cc1 [Example 28, 4-[3-(Phenylcarbonyl)-1H-indazol-1-yl]benzoic acid]
- inhibition at 1 µM [2]: 30.2%
- inhibition at 10 µM [3]: 62.9%

Structure (SMILES): O=C(O)c1ccc(-n2nc(C(=O)c3c(Cl)cccc3Cl)c3ccccc32)cc1 [Example 29, 4-[3-(2,6-Dichlorobenzoyl)-1H-indazol-1-yl]benzoic acid]
- IC50 [1]: < 50 nM
- inhibition at 1 µM [2]: 96.9%
- inhibition at 10 µM [3]: 94.3%

Structure (SMILES): O=C(O)c1ccc(-n2nc(C(=O)c3ccccc3)c3ccccc32)c(F)c1 [Example 30, 4-(3-Benzoyl-1H-indazol-1-yl)-3-fluorobenzoic acid]
- inhibition at 1 µM [2]: 47.1%
- inhibition at 10 µM [3]: 88.9%

Structure (SMILES): O=C(O)c1ccc(-n2nc(C(=O)c3c(Cl)cccc3Cl)c3ccccc32)c(F)c1 [Example 31, 4-[3-(2,6-Dichlorobenzoyl)-1H-indazol-1-yl]-3-fluorobenzoic acid]
- IC50 [1]: < 50 nM
- inhibition at 1 µM [2]: 96.6%
- inhibition at 10 µM [3]: 91.6%

Structure (SMILES): O=C(O)c1ccc(-n2nc(C(=O)c3c(Cl)cccc3Cl)c3cccc(F)c32)cc1 [Example 32, 4-{3-[(2,6-Dichlorophenyl)carbonyl]-7-fluoro-1H-indazol-1-yl}benzoic acid]
- IC50 [1]: < 50 nM
- inhibition at 1 µM [2]: 94.6%
- inhibition at 10 µM [3]: 90.4%

Structure (SMILES): O=C(O)c1ccc(-n2nc(C(=O)c3c(Cl)cccc3C(F)(F)F)c3ccccc32)c(F)c1 [Example 33, 4-(3-{[2-Chloro-6-(trifluoromethyl)phenyl]carbonyl}-1H-indazol-1-yl)-3-fluorobenzoic acid]
- IC50 [1]: < 50 nM
- inhibition at 1 µM [2]: 98.1%
- inhibition at 10 µM [3]: 94.1%

Structure (SMILES): O=C(O)c1ccc(-n2nc(C(=O)c3c(Cl)cccc3C(F)(F)F)c3ccccc32)cc1 [Example 34, 4-(3-{[2-Chloro-6-(trifluoromethyl)phenyl]carbonyl}-1H-indazol-1-yl)-benzoic acid]
- IC50 [1]: < 50 nM
- inhibition at 1 µM [2]: 96.9%
- inhibition at 10 µM [3]: 92%

Structure (SMILES): O=C(O)c1ccc(-n2nc(C(=O)c3c(Cl)cccc3C3CC3)c3cccc(F)c32)cc1 [Example 35, 4-{3-[(2-Chloro-6-cyclopropylphenyl)carbonyl]-7-fluoro-1H-indazol-1-yl}benzoic acid]
- IC50 [1]: < 50 nM
- inhibition at 1 µM [2]: 92.3%
- inhibition at 10 µM [3]: 89.2%
